The text below walks through data of EP1311531B1, “STEROID DERIVED ANTIBIOTICS” (Brigham Young University, priority 2000, dated 2002).

≈ marks a conversion by molar mass, not a printed value. Where two headings read alike, the source gives them in different places.

A short description of series [1]: Minimum hemolytic concentration (MHC). As to conditions: Table 10. The format is cell-based. Here is the method: Minimum inhibition concentrations (MIC) and minimum hemolytic concentrations (MHC) were measured as described in Li et al., Antimicrob. Agents. Chemother., 1999, 43, 1347. […]
Series [2] concerns Staphylococcus aureus ATCC 25923. The series is described as follows: MIC and MBC measurement. The series is classed as cell-based. The conditions noted are these: ATCC25923, Table 10, Staphylococcus aureus ATCC 25923; for MIC: read-out: MIC. The text has this:
(§1) General: Microorganisms. Reference strains were purchased from the American Type Culture Collection (Rockville, MD) or Bactrol disks from Difeo Laboratories (Detroit, MI). The following specific ATCC strains were used: 10798 Escherichia coli, 25922 Escherichia coli, 13883 Klebsiella pneumoniae, 27853 Pseudomonas aeruginosa, 14028 Salmonella typhimurium, 29212 Enterococcus faecalis, 25923 Staphylococcus aureus, 19615 Streptococcus pyogenes, and 90028 Candida albicans. Bacterial strains were maintained on Mueller-Hinton agar plates, and Candida albicans was maintained on Sabouraud Dextrose agar plates.
(§2) Tryptic soy broth (TSB) was made by dissolving 27.5 grams of tryptic soy broth without dextrose (DIFCO Laboratories) in 1 liter of deionized water and sterilizing at 121 °C for 15 minutes. Solid agar (TSA) plates were made by dissolving 6.4 grams of tryptic soy broth and 12 grams of agar (purified grade, Fischer Scientific) in 800 mL of deionized water and sterilizing at 121 °C for 20 minutes. Aliquots (20 mL) of the homogeneous solution were then poured in sterile plastic petri dishes (100 x 15 mm, Fisher Scientific). Solutions of compounds were made by dissolving the HCl salt of the respective compound into an appropriate amount of deionized and sterilized water followed by microfiltration.
(§3) Aliquots of 1 mL of the suspension were added to test tubes containing 1 mL TSB and incrementally varied concentrations of cholic acid derivatives and/or erythromycin or novobiocin. In the sensitization experiments, erythromycin or novobiocin were added 15 minutes later than the cholic acid derivatives. The samples were subjected to stationary incubation at 37°C for 24 hours. Sample turbidity was determined by measuring absorption at 760 nm (HP 8453 UV-Visible Chemstation, Hewlett Packard). Additionally, an alliquot from each of the samples showing no measurable turbidity was subcultured on TSA plates (alliquots were diluted to provide fewer than 300 CFU). Colonies that grew on the subculture after overnight incubation were counted and the number of CFU/mL in the samples were calculated. The calculated values were compared to the number of CFU/mL in the original inoculum. […]

For series [3], the system named is Escherichia coli ATCC 25922. The series is described as follows: MIC and MBC measurement. The series is classed as cell-based. The conditions noted are these: Escherichia coli; for MIC: read-out: MIC.
From the text: as §1, §2, §3

Series [4] deals with Enterococcus faeculis ATCC 29212. The series is described as follows: MIC and MBC measurement. As to conditions: ATCC29212. The format is cell-based, Enterococcus faecalis. Here is the method:
General: Microorganisms. Reference strains were purchased from the American Type Culture Collection (Rockville, MD) or Bactrol disks from Difeo Laboratories (Detroit, MI). […] Bacterial strains were maintained on Mueller-Hinton agar plates, and Candida albicans was maintained on Sabouraud Dextrose agar plates.
Aliquots (20 mL) of the homogeneous solution were then poured in sterile plastic petri dishes (100 x 15 mm, Fisher Scientific). Solutions of compounds were made by dissolving the HCl salt of the respective compound into an appropriate amount of deionized and sterilized water followed by microfiltration.
Aliquots of 1 mL of the suspension were added to test tubes containing 1 mL TSB and incrementally varied concentrations of cholic acid derivatives and/or erythromycin or novobiocin. […] Additionally, an alliquot from each of the samples showing no measurable turbidity was subcultured on TSA plates (alliquots were diluted to provide fewer than 300 CFU). Colonies that grew on the subculture after overnight incubation were counted and the number of CFU/mL in the samples were calculated. The calculated values were compared to the number of CFU/mL in the original inoculum.

Series [5] concerns Salmonella typhimurium ATCC 14028. Nature of the series: Sensitization to erythromycin, novobiocin or rifampicin (permeabilization, FIC). As to conditions: Table 13; with rifampicin (order of b151); Salmonella typhimurium ATCC 14028^b (footnote b not given). The format is cell-based.
In series [6] the test system is outer membrane of Gram-negative bacteria. Nature of the series: Luciferin/luciferase luminescence assay of membrane permeabilization. The conditions noted are these: Escherichia coli; permeabilization of the outer membrane allowing luciferin to enter the cell; read-out: half maximum luminescence. The series is classed as cell-based, E. coli. Here is the method: Using a technique described by J. M. Shupp, S. E. Travis, L. B. Price, R. F. Shand, P. Keim, RAPID BACTERIAL PERMEABILIZATION REAGENT USEFUL FOR ENZYME ASSAYS, Biotechniques, 1995, vol.
In this assay, E. coli containing an inducible luciferase coding plasmid was incubated with the inducing agent […], then treated with a lysis buffer containing either PMB or one of the cholic acid derivatives, and Triton X-100. Luciferin and ATP were then added. […] The concentrations of the membrane disrupting agents (PMB and the cholic acid derivatives) were varied, and the resulting luminescence was measured.

Where [7] appears, read: ATCC25922, Table 4, E. coli (ATCC 25922).
Setting [8] is: ATCC25922, Table 10, Escherichia coli ATCC 25922.

For `C[C@H](CCCN(C)Cc1ccccc1)[C@H]1CC[C@H]2[C@@H]3[C@H](OCCN)C[C@@H]4C[C@H](OCCN)CC[C@]4(C)[C@H]3C[C@H](OCCN)[C@]12C` [Compound 1], the MHC in series [1] came to 78 µg/mL. Besides, the MBC in series [2] was found to be 5.7 µg/mL (≈ 9.09 µM); in series [3] (setting [7]) it was 40 µg/mL (≈ 63.8 µM); in series [3] (setting [8]), 22 µg/mL (≈ 35.1 µM); in series [4], 50 µg/mL (≈ 79.7 µM). Moreover, the MIC in series [2] amounted to 3.1 µg/mL (≈ 4.94 µM); in series [3] (setting [7]), 25 µg/mL (≈ 39.9 µM); in series [3] (setting [8]), 22 µg/mL (≈ 35.1 µM); in series [4], 4.9 µg/mL (≈ 7.82 µM). Besides, the FIC in series [5] worked out at 0.089. Also, in series [5], the “concentration required for bacterial growth inhibition” value was determined as 0.84 µg/mL.

In the case of `C[C@H](CCCN(C)Cc1ccccc1)[C@H]1CC[C@H]2[C@@H]3[C@H](OCCCN)C[C@@H]4C[C@H](OCCCN)CC[C@]4(C)[C@H]3C[C@H](OCCCN)[C@]12C` [Compound 2], the EC50 in series [6] came out at 7 µg/mL (≈ 10.5 µM). Besides, the MHC in series [1] was found to be 58 µg/mL. The minimum bactericidal concentration (MBC) in series [2] was determined as 4.7 µg/mL (≈ 7.02 µM); in series [3] (setting [7]), 20 µg/mL (≈ 29.9 µM); in series [3] (setting [8]), 6.8 µg/mL (≈ 10.2 µM); in series [4] it was 19 µg/mL (≈ 28.4 µM). Also, the minimal inhibitory concentration (MIC) was 1 µg/mL (≈ 1.49 µM) in series [2], 10 µg/mL (≈ 14.9 µM) in series [3] (setting [7]), 5.1 µg/mL (≈ 7.62 µM) in series [3] (setting [8]) and 3.4 µg/mL (≈ 5.08 µM) in series [4]. Further, in series [5], the FIC is recorded as 0.079. The “concentration required for bacterial growth inhibition” value in series [5] is reported as 0.39 µg/mL.

The molecule `C[C@H](CCCN(C)Cc1ccccc1)[C@H]1CC[C@H]2[C@@H]3[C@H](OCCCNC(=N)N)C[C@@H]4C[C@H](OCCCNC(=N)N)CC[C@]4(C)[C@H]3C[C@H](OCCCNC(=N)N)[C@]12C` [Compound 5] returned an MHC in series [1] of 26 µg/mL. In addition, the minimal bactericidal concentration (MBC) was determined as 3.2 µg/mL (≈ 4.02 µM) in series [2], 4 µg/mL (≈ 5.03 µM) in series [3] (setting [7]), 3.8 µg/mL (≈ 4.78 µM) in series [3] (setting [8]) and 16 µg/mL (≈ 20.1 µM) in series [4]. For the same molecule, the MIC in series [2] amounted to 0.6 µg/mL (≈ 0.755 µM); in series [3] (setting [7]) it was 2 µg/mL (≈ 2.52 µM); in series [3] (setting [8]) it was 1.4 µg/mL (≈ 1.76 µM); in series [4] it was 2.2 µg/mL (≈ 2.77 µM).

As to `C[C@H](CCCO)[C@H]1CC[C@H]2[C@@H]3[C@H](OCCCN)C[C@@H]4C[C@H](OCCCN)CC[C@]4(C)[C@H]3C[C@H](OCCCN)[C@]12C` [Compound 10], in series [6], the EC50 turned out to be 33 µg/mL (≈ 58.3 µM). The molecule further registered an MHC in series [1] of 100 µg/mL. For the same molecule, in series [2], the minimal bactericidal concentration (MBC) was 9.2 µg/mL (≈ 16.3 µM) and the MIC turned out to be 2 µg/mL (≈ 3.53 µM). In addition, in series [3] (setting [8]), the minimum bactericidal concentration (MBC) was 40 µg/mL (≈ 70.7 µM) and the minimum inhibitory concentration (MIC) is 36 µg/mL (≈ 63.6 µM). In series [4], this molecule came in with an MBC of 19 µg/mL (≈ 33.6 µM) and an MIC of 3.3 µg/mL (≈ 5.83 µM). For the same molecule, in series [5], the FIC was 0.063 and the “concentration required for bacterial growth inhibition” value was 0.55 µg/mL.

Turning to `C[C@]12CC[C@@H](OCCCN)C[C@H]1C[C@@H](OCCCN)[C@@H]1[C@@H]2C[C@H](OCCCN)[C@]2(C)[C@@H](O)CC[C@@H]12` [Compound 106], in series [1], the MHC is on record as >100 µg/mL. Moreover, the MBC is 54 µg/mL (≈ 109 µM) in series [2], 90 µg/mL (≈ 182 µM) in series [3] (setting [8]) and > 100 µg/mL in series [4]. Also, the MIC in series [2] came out at 8.6 µg/mL (≈ 17.3 µM); in series [3] (setting [8]) it was 80 µg/mL (≈ 161 µM); in series [4], 12 µg/mL (≈ 24.2 µM). Further, the FIC in series [5] was 0.064. Moreover, the “concentration required for bacterial growth inhibition” value in series [5] worked out at 1.4 µg/mL.

In series [1], `CCCOCCC[C@@H](C)[C@H]1CC[C@H]2[C@@H]3[C@H](OCCCN)C[C@@H]4C[C@H](OCCCN)CC[C@]4(C)[C@H]3C[C@H](OCCCN)[C@]12C` [Compound 112] gave an MHC of 5.9 µg/mL. In series [2], the MBC was 4.2 µg/mL (≈ 6.91 µM) and the MIC came to 0.55 µg/mL (≈ 0.905 µM). Moreover, in series [3] (setting [8]), the MBC came out at 7.4 µg/mL (≈ 12.2 µM) and the MIC was found to be 6.6 µg/mL (≈ 10.9 µM). In addition, in series [4], the MBC was determined as 4.7 µg/mL (≈ 7.73 µM) and 3.1 µg/mL (≈ 5.1 µM) was the least that counted as inhibitory (MIC). Further, in series [5], the FIC is 0.051 and the “concentration required for bacterial growth inhibition” value stood at 0.10 µg/mL.

For orientation: MBC means the lowest tested concentration that kills the bacteria rather than only halting them. Usually MIC stands for the lowest concentration found to suppress growth.
